As usually defined, the IC50 is the concentration that gives 50% inhibition.

This test addresses TNFα trimer (Homo sapiens, UniProt P01375). Put plainly: TNFα FP Competitive Binding Assay. The conditions noted are these: fluorescence polarization competition; 20 nM TNFα trimer, 1 nM OregonGreen488 probe; read-out: TNF IC50 (TNFα FP binding assay IC50). The method, boiled down: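 Fluorescence polarization displacement: 20 nM TNFα trimer (60 nM protein) with 1 nM fluorescein-labelled bis-isoquinoline probe in HEPES/NaCl/EDTA/Triton X-100 buffer. 12-point 1:3 compound series, top final 338 μM (3.4% DMSO) or 100 μM (2.0% DMSO); 18-24 h at 37 °C, then 1 h rt before background-subtracted mP read; variable-slope curve fit.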
In general terms: Fluorescence polarisation rises when a labelled molecule tumbles more slowly, as on binding a larger partner.

Each structure is given as a SMILES string.

TNFα trimer, sequence (P01375 77-233 limits assumed): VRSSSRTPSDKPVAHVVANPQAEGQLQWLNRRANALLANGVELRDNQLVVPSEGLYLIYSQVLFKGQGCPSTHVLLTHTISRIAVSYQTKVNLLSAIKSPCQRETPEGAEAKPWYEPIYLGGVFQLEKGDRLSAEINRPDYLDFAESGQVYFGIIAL

On to `CC1(C)C=C(c2ccc3nc4n(c3n2)[C@@H](c2ccccc2)CC4)CN1` [Example 62], for which the IC50 fell in the range of 10000 to 100000 nM.

Regarding `CC(C)(O)c1ncc(-c2ccc3nc4n(c3n2)C(c2ccccc2)C2CC4C2)cn1` (centres unmarked) [Example 63, 2-(5-(9-Phenyl-6,7,8,9-tetrahydro-6,8-methanoimidazo[1,2-a:5,4-b′]dipyridin-2-yl)pyrimidin-2-yl)propan-2-ol], the IC50 was 1000 to 10000 nM. In the case of `OC1CCN(c2ncc(-c3ccc4nc5n(c4n3)C(c3ccccc3)C3CC5C3)cn2)CC1` (centres unmarked) [Example 64, 1-(5-(9-Phenyl-6,7,8,9-tetrahydro-6,8-methanoimidazo[1,2-a:5,4-b′]dipyridin-2-yl)pyrimidin-2-yl)piperidin-4-ol] it was 1000 to 10000 nM. For the compound `CC1(C)C=C(c2ccc3nc4n(c3n2)C2(COC4)COc3ccccc32)CN1` (centres unmarked) [Example 65, 2′-(5,5-Dimethyl-2,5-dihydro-1H-pyrrol-3-yl)-6′,8′-dihydro-2H-spiro[benzofuran-3,9′-pyrido[3′,2′:4,5]imidazo[2,1-c][1,4]oxazine]], the IC50 lay in the range of 1000 to 10000 nM.

With `c1ccc2c(c1)OCC21COCc2nc3ccc(-c4cnc(N5CCNCC5)nc4)nc3n21` (centres unmarked) [Example 66, 2′-(2-(Piperazin-1-yl)pyrimidin-5-yl)-2H,6′H,8′H-spiro[benzofuran-3,9′-pyrido[3′,2′:4,5]imidazo[2,1-c][1,4]oxazine]], the IC50 is 1000 to 10000 nM.

On to `C[C@H]1CN(c2ncc(-c3ccc4nc5n(c4n3)C3(COC5)COc4ccccc43)cn2)CCN1C(=O)CO` (stereo partly drawn) [Example 67, 1-((2S)-4-(5-(2H,6′H,8′H-Spiro[benzofuran-3,9′-pyrido[3′,2′:4,5]imidazo[2,1-c][1,4]oxazin]-2′-yl)pyrimidin-2-yl)-2-methylpiperazin-1-yl)-2-hydroxyethan-1-one], for which the IC50 is less than 1000 nM. In the case of `CC(C)(O)c1ncc(-c2ccc3nc4n(c3n2)C2(CCc3ccccc32)COC4)cn1` (centres unmarked) [Example 68, 2-(5-(2,3-Dihydro-6′H,8′H-spiro[indene-1,9′-pyrido[3′,2′:4,5]imidazo[2,1-c][1,4]oxazin]-2′-yl)pyrimidin-2-yl)propan-2-ol], the IC50 is less than 1000 nM.

Take `CC(C)(O)c1ncc(-c2ccc3nc4n(c3n2)C2(COC4)CC(=O)c3ccccc32)cn1` (centres unmarked) [Example 69, 2′-(2-(2-Hydroxypropan-2-yl)pyrimidin-5-yl)-6′,8′-dihydrospiro[indene-1,9′-pyrido[3′,2′:4,5]imidazo[2,1-c][1,4]oxazin]-3(2H)-one]: the IC50 was 1000 to 10000 nM. Regarding `CC(C)(O)c1ncc(-c2ccc3nc4n(c3n2)[C@@H](c2ccccc2)[C@@H]2C[C@H]4O2)cn1` [Example 70, 2-(5-((6R,8S,9S)-9-Phenyl-6,7,8,9-tetrahydro-6,8-epoxyimidazo[1,2-a:5,4-b′]dipyridin-2-yl)pyrimidin-2-yl)propan-2-ol], the IC50 fell in the range of 10000 to 100000 nM. Turning to `OC1CCN(c2ncc(-c3ccc4nc5n(c4n3)[C@@H](c3ccccc3)[C@@H]3C[C@H]5O3)cn2)CC1` [Example 71, 1-(5-((6R,8S,9S)-9-Phenyl-6,7,8,9-tetrahydro-6,8-epoxyimidazo[1,2-a:5,4-b′]dipyridin-2-yl)pyrimidin-2-yl)piperidin-4-ol], the IC50 lay within 10000 to 100000 nM. In the case of `CC(C)(O)c1ncc(-c2ccc3nc4n(c3n2)C2(CCc3ccccc32)COC4O)cn1` (centres unmarked) [Example 72, 2′-(2-(2-Hydroxypropan-2-yl)pyrimidin-5-yl)-2,3-dihydro-6′H,8′H-spiro[indene-1,9′-pyrido[3′,2′:4,5]imidazo[2,1-c][1,4]oxazin]-6′-ol], the IC50 was in the range of 1000 to 10000 nM. Next, `C1=C(c2ccc3nc4n(c3n2)C2(COC4)COc3ccccc32)CCN(c2ccncn2)C1` (centres unmarked) [Example 73, 2′-(1-(Pyrimidin-4-yl)-1,2,3,6-tetrahydropyridin-4-yl)-2H,6′H,8′H-spiro[benzofuran-3,9′-pyrido[3′,2′:4,5]imidazo[2,1-c][1,4]oxazine]]: 1000 to 10000 nM; `O[C@H]1CC[C@H](Oc2cc(-c3ccc4nc5n(c4n3)[C@@]3(COC5)COc4ccccc43)ccn2)CC1` [Example 74, (1S,4r)-4-((4-((S)-6′,8′-Dihydro-2H-spiro[benzofuran-3,9′-pyrido[3′,2′:4,5]imidazo[2,1-c][1,4]oxazin]-2′-yl)pyridin-2-yl)oxy)cyclohexanol]: less than 1000 nM. For `C[C@H]1CN(c2ncc(-c3ccc4nc5n(c4n3)[C@@]3(COC5)COc4ccccc43)cn2)CCN1C(=O)CO` [Example 75, 1-((S)-4-(5-((S)-6′,8′-Dihydro-2H-spiro[benzofuran-3,9′-pyrido[3′,2′:4,5]imidazo[2,1-c][1,4]oxazin]-2′-yl)pyrimidin-2-yl)-2-methylpiperazin-1-yl)-2-hydroxyethanone], the IC50 was less than 1000 nM.

For the compound `C1=C(c2ccc3nc4n(c3n2)[C@@H](c2ccccc2)CC4)CCN(c2ccncn2)C1` [Example 76, (R)-8-Phenyl-2-(1-(pyrimidin-4-yl)-1,2,3,6-tetrahydropyridin-4-yl)-7,8-dihydro-6H-pyrrolo[2′,1′:2,3]imidazo[4,5-b]pyridine], the IC50 lay in the range of 1000 to 10000 nM. In the case of `CC1(c2ccccc2)CCc2nc3ccc(-c4cnc(N5CCC(O)CC5)nc4)nc3n21` (centres unmarked) [Example 77, 1-(5-(8-Methyl-8-phenyl-7,8-dihydro-6H-pyrrolo[2′,1′:2,3]imidazo[4,5-b]pyridin-2-yl)pyrimidin-2-yl)piperidin-4-ol], the IC50 is less than 1000 nM. As for `CC(C)(N)c1ncc(-c2ccc3nc4n(c3n2)C2(CCc3ccccc32)COC4)cn1` (centres unmarked) [Example 80, 2-(5-(2,3-Dihydro-6′H,8′H-spiro[indene-1,9′-pyrido[3′,2′:4,5]imidazo[2,1-c][1,4]oxazin]-2′-yl)pyrimidin-2-yl)propan-2-amine], the IC50 is less than 1000 nM. Take `CC(C)(O)c1ncc(-c2ccc3nc4n(c3n2)C2(COC4)CC(O)c3ccccc32)cn1` (centres unmarked) [Example 81, 2′-(2-(2-Hydroxypropan-2-yl)pyrimidin-5-yl)-2,3,6′,8′-tetrahydrospiro[indene-1,9′-pyrido[3′,2′:4,5]imidazo[2,1-c][1,4]oxazin]-3-ol]: the IC50 is 1000 to 10000 nM. On to `FC1(F)CCN(c2ncc(-c3ccc4nc5n(c4n3)C(c3ccccc3)COC5)cn2)CC1` (centres unmarked) [Example 82], for which the IC50 was less than 1000 nM. Consider `O[C@H]1CC[C@H](Oc2cc(-c3ccc4nc5n(c4n3)[C@@H](c3ccccc3)CC5)ccn2)CC1` [Example 83, (1R,4R)-4-((4-((R)-8-Phenyl-7,8-dihydro-6H-pyrrolo[2′,1′:2,3]imidazo[4,5-b]pyridin-2-yl)pyridin-2-yl)oxy)cyclohexanol], for which the IC50 is less than 1000 nM. Consider `OC1CC2(CCN(c3ncc(-c4ccc5nc6n(c5c4)[C@@H](c4ccccc4)CC6)cn3)CC2)C1` [F.1], for which the IC50 was less than 1000 nM. For `OC1CCN(c2ncc(-c3ccc4nc5n(c4c3)[C@@H](c3ccccc3)CC5)cn2)CC1(F)F` (some centres unmarked) [F.2], the IC50 was less than 1000 nM. Regarding `OC1CCN(c2ncc(-c3ccc4nc5n(c4c3)[C@@H](c3ccccc3)CC5)cn2)CC1` [F.3], the IC50 was less than 1000 nM.

For the compound `O=S1(=O)CCN(c2ncc(-c3ccc4nc5n(c4c3)[C@@H](c3ccccc3)CC5)cn2)CC1` [F.4], the IC50 was less than 1000 nM. `O=C1NCCC12CCN(c1ncc(-c3ccc4nc5n(c4c3)[C@@H](c3ccccc3)COC5)cn1)C2` (some centres unmarked) [G.1]: the IC50 was 1000 to 10000 nM.

Turning to `CC1CN(c2ncc(-c3ccc4nc5n(c4c3)[C@@H](c3ccccc3)COC5)cn2)CCO1` (some centres unmarked) [G.2], the IC50 is less than 1000 nM. For the compound `O=C(O)CC1CCCN(c2ncc(-c3ccc4nc5n(c4c3)[C@@H](c3ccccc3)COC5)cn2)C1` (some centres unmarked) [G.3], the IC50 lay in the range of 1000 to 10000 nM. Next, `OCC1CCCN(c2ncc(-c3ccc4nc5n(c4c3)[C@@H](c3ccccc3)COC5)cn2)C1` (some centres unmarked) [G.4]: less than 1000 nM. For `OCCCN1CCN(c2ncc(-c3ccc4nc5n(c4c3)[C@@H](c3ccccc3)COC5)cn2)CC1` [G.5], the IC50 was 1000 to 10000 nM. For `O=C1NCNC12CCN(c1ncc(-c3ccc4nc5n(c4c3)[C@@H](c3ccccc3)COC5)cn1)CC2` [G.6], the IC50 was 1000 to 10000 nM. Consider `CC(O)C1CCN(c2ncc(-c3ccc4nc5n(c4c3)[C@@H](c3ccccc3)COC5)cn2)CC1` (some centres unmarked) [G.7], for which the IC50 was in the range of 1000 to 10000 nM. Turning to `c1ccc([C@H]2COCc3nc4ccc(-c5cnc(N6CCC7(CC6)COC7)nc5)cc4n32)cc1` [G.8], the IC50 is less than 1000 nM. For the compound `O=C1CN(c2ncc(-c3ccc4nc5n(c4c3)[C@@H](c3ccccc3)COC5)cn2)CCCN1` [G.9], the IC50 lay in the range of 1000 to 10000 nM.

Turning to `O=C(O)CCC1CCN(c2ncc(-c3ccc4nc5n(c4c3)[C@@H](c3ccccc3)COC5)cn2)CC1` [G.10], the IC50 lay within 1000 to 10000 nM.

Regarding `OC1CCCN(c2ncc(-c3ccc4nc5n(c4c3)[C@@H](c3ccccc3)COC5)cn2)CC1` (some centres unmarked) [G.11], the IC50 is less than 1000 nM. With `NS(=O)(=O)N1CCN(c2ncc(-c3ccc4nc5n(c4c3)[C@@H](c3ccccc3)COC5)cn2)CC1` [G.12], the IC50 is less than 1000 nM.

Consider `CN1CCC(N2CCN(c3ncc(-c4ccc5nc6n(c5c4)[C@@H](c4ccccc4)COC6)cn3)CC2)CC1` [G.13], for which the IC50 lay in the range of 1000 to 10000 nM.

On to `OCC1(F)CCN(c2ncc(-c3ccc4nc5n(c4c3)[C@@H](c3ccccc3)COC5)cn2)CC1` [G.14], for which the IC50 is less than 1000 nM. In the case of `FC(F)(F)C1CN(c2ncc(-c3ccc4nc5n(c4c3)[C@@H](c3ccccc3)COC5)cn2)CCO1` (some centres unmarked) [G.15] it was 1000 to 10000 nM; in that of `c1ccc([C@H]2COCc3nc4ccc(-c5cnc(N6CCC7(COC7)C6)nc5)cc4n32)cc1` [G.16], 1000 to 10000 nM.

`c1ccc([C@H]2COCc3nc4ccc(-c5cnc(N6CC(N7CCOCC7)C6)nc5)cc4n32)cc1` [G.17]: the IC50 lay within 10000 to 100000 nM.

Take `CS(=O)(=O)[C@@H]1CCN(c2ncc(-c3ccc4nc5n(c4c3)[C@@H](c3ccccc3)COC5)cn2)C1` [G.18]: the IC50 lay in the range of 1000 to 10000 nM. Turning to `CS(=O)(=O)NC1CCN(c2ncc(-c3ccc4nc5n(c4c3)[C@@H](c3ccccc3)COC5)cn2)CC1` [G.19], the IC50 was in the range of 1000 to 10000 nM. Next, `OCCC1(O)CCN(c2ncc(-c3ccc4nc5n(c4c3)[C@@H](c3ccccc3)COC5)cn2)CC1` [G.20]: less than 1000 nM.

For the origin of these results see US20180179198A1, “TRICYCLIC MODULATORS OF TNF SIGNALING” (AbbVie Inc., priority 2015, published 2018).
